The values that follow come from patent US20240299401A1, “NOVEL REDOX-BASED THERAPEUTIC APPROACH FOR TREATMENT OF CANCER” (THE PENN STATE RESEARCH FOUNDATION, priority 2020, published 2024).

The subject of series [1] is extracellular reduced thiols. Put plainly: Extracellular thiols measurement (DTDP method). Type of series: cell-based, human. Particulars: for thiols efflux: A549 and H1299, 24 h, Erastin 5 μM, MSG 50 mM, Sorafenib 2.5 μM, trans-2,4-PDC 100 μM; for extracellular reduced thiols levels: MCF7 cells. The procedure: Cell culture media was collected at specified time points after incubation with the respective compounds as described in the respective figure legends and extracellular total thiols were measured using the DTDP method 19. The protocol was adjusted to 96-well plate format. […] Absorbance was measured at 324 nm in a spectrophotometer (PowerWave HT, BioTek, VT, USA). The assay mixture with fresh media was used as a blank.

In another series the test system is A549. Put plainly: WST-1 cytotoxicity, A549. The settings on record: A549 (Lung), compound alone, 24 h, '>' = dose approximation, read-out: IC50 values. Type of series: cell-based, human. The procedure: (§1) Two different cytotoxicity/proliferation kit was used in this study i.e., WST-1 proliferation assay kit (Roche, Indianapolis, IN, USA; Cat #28620000) and Cell-titer Glo-luminescent cell viability assay (Promega, WI, USA; Cat #0000348721). Majority of the cell proliferation/cytotoxicity experiments were performed with WST-1 assay. Briefly, cells were seeded at the indicated density for 24 h in 96 well plate, media was replaced, and subsequently treated with the test compounds at different doses. […] Cell titer Glo-assay was additionally performed in certain cases to validate the results from WST-1 assay as outlined above following manufacturer's instructions and luminescence was measured using a FLx100 Luminometer (CLARIOSTAR®, Ortenbery, Germany). […] Other proliferation/cytotoxicity assays were also carried out i.e., Quant™-iT PicoGreen ds DNA assay kit (Thermo Scientific, Rockwood, TN, USA, P7589) following manufacturer's instructions, Trypan blue (Sigma, Ayrshire, UK, T8154) and acid phosphatase assay for validation of cytotoxicity/proliferation data from other assays.
On the technique in general: Tetrazolium assays rely on reduction of a dye to a coloured formazan, in cell work by metabolically active cells.

Another series concerns H661. Description: WST-1 cytotoxicity, H661. Type of series: cell-based, human. Particulars: H661 (Lung), compound alone, 24 h, '>' = dose approximation, read-out: IC50 values. The procedure: as §1
The next series has as its system NB4. Description: WST-1 cytotoxicity, NB4. The settings on record: NB4 (Leukemia), compound alone, 24 h, '>' = dose approximation, read-out: IC50 values. The class given is cell-based, human. The procedure:
as §1

In the next series the test system is HL60. Put plainly: WST-1 cytotoxicity and synergy analysis, HL60. The class given is cell-based, human. The settings on record: HL60 (Leukemia), compound alone, 24 h, '>' = dose approximation, read-out: IC50 values. As to the method:
as §1

For series [2], the system named is 23 different human cell lines of multiple cancer origins. Description: Cytotoxicity across the cancer cell line panel (summary statements). The class given is cell-based. As to the method: as §1
Another series has as its system ATF4. The settings on record: HEK293 ATF4 reporter; tunicamycin 2.5 μM, other compounds 5.0 μM; 24 h.
A further series relates to H1299. Description: WST-1 cytotoxicity, H1299. Type of series: cell-based, human. Particulars: H1299 (Lung); compound alone; 24 h; '>' = dose approximation; read-out: IC50 values. The procedure:
as §1

The next series concerns MCF-7. Description: WST-1 cytotoxicity, MCF-7. The class given is cell-based, human. Particulars: MCF7 (Breast); compound alone; 24 h; '>' = dose approximation; read-out: IC50 values. As to the method: as §1
A further series concerns SLC7A11. Put plainly: SLC7A11 mRNA expression (qRT-PCR). Particulars: HL60 and H1299 cells. A general note: In qPCR the cycle at which signal appears reflects the starting amount.

Counter-ions that a name gives are not always drawn. Like-named read-outs stand apart in the source and are kept apart here.

Method for ATF4: The next day, media was replaced with respective compounds as described. Twenty-four hours post-treatment, media were aspirated and replaced with 1:1 ratio of PBS:Bright Glo luciferase reagent mix (Promega, Madison, WI, USA) according to manufacturer's protocol. Cells were incubated in the dark for 10 min at room temperature with gentle rocking and luciferase activity was measured using an FLx100 Luminometer (CLARIOSTAR®, Ortenbery, Germany). In parallel, the same setup was made, and the cells were used to monitor the proliferation/toxicity of individual exposed compounds. Luciferase signal is normalized to the to the proliferation/toxicity of the individual compounds. Bortezomib (50 nM, Sigma-Aldrich, St. Louis, MO, USA), a known agonist for ATF4, was used as a positive control.
The next day, old media was replaced with media containing the respective compounds as described in the figure legends. […] Cells were incubated in the dark for 10 min at room temperature with gentle rocking and luciferase activity was measured using an FLx100 Luminometer (CLARIOSTAR®, Ortenbery, Germany). […] In parallel, the same setup was made, and the cells were used to monitor the proliferation/toxicity of individual compounds. Luciferase signal was normalized to correct for the proliferation/toxicity of the individual compounds. […] For ATF4 reporter assay, Hek293T reporter cells 20 were cultured similarly as indicated for MCF7 cells, except for seeding density was set at 300 cells/mm2. All other experimental set up was similar.

On to `O=C(O)[C@H]1CN[C@H](C(=O)O)C1` (relative stereo) [trans-2,4-PDC], for which the thiols efflux entry in series [1] is “no effect”.

Regarding `CCCCS(=N)(=O)CCC(N)C(=O)O` (stereo not shown) [BSO], the “impact on the DPDS-induced increase in thiols efflux” value in series [1] (MCF7, co-exposure, time-course) was “little or no impact”.

For orientation: IC50 means the concentration that inhibits the measured activity by half. For `COc1cc(/C=C/C(=O)CC(=O)/C=C/c2ccc(O)c(OC)c2)ccc1O` [Curcumin, reference compound], the IC50 was above 20 µM in the series with A549 (Homo sapiens); above 20 µM in the series on H661 (Homo sapiens, NCI-H661); above 20 µM with NB4 (Homo sapiens, NB-4); above 20 µM in the series with HL60 (Homo sapiens, HL-60).

Consider `c1ccc(C[Se][Se]Cc2ccccc2)cc1` [DBDS, dibenzyl diselenide], for which the extracellular reduced thiols result in series [1] (HEK293 ATF4 reporter cells, 5.0 μM) is on record as “increased levels of extracellular reduced thiols”; in series [1] (all the tested cell lines, H1299 and HL60), “highly effective”.

Consider `COC(=O)/C=C/C(=O)OC` [Dimethyl fumarate, reference compound], for which the IC50 in the series with A549 (Homo sapiens) is above 40 µM; in the series on H661 (Homo sapiens, NCI-H661) it was above 40 µM; in the series on NB4 (Homo sapiens, NB-4), above 40 µM; with HL60 (Homo sapiens, HL-60) it was above 40 µM.

Take `CCOc1ccccc1-n1c(C(C)N2CCN(C(=O)COc3ccc(Cl)cc3)CC2)nc2ccccc2c1=O` (stereo not shown) [Erastin]: the “effect of co-treatment on cytotoxicity of sodium selenite and selenocystine” value in series [2] is recorded as “inhibition of cytotoxicity”.

Regarding `c1ccc(SSc2ccccc2)cc1` [Phenyl disulfide], the IC50 was above 40 µM with A549 (Homo sapiens); above 20 µM with H661 (Homo sapiens, NCI-H661); above 20 µM with NB4 (Homo sapiens, NB-4); above 40 µM in the series with HL60 (Homo sapiens, HL-60).

On to `O=C(O)c1cc(/N=N/c2ccc(S(=O)(=O)Nc3ccccn3)cc2)ccc1O` [Sulfasalazine], for which the “effect of co-treatment on cytotoxicity of sodium selenite and selenocystine” value in series [2] (chemical inhibition of cystine transport) is listed as “inhibition of cytotoxicity”.

With `C[S+]([O-])CCCCN=C=S` (stereo not shown) [Sulforaphen, reference compound], in the series with ATF4, the ATF4 activity entry is reported as “not effective”. The IC50 was above 10 µM in the series on A549 (Homo sapiens); above 10 µM in the series with H661 (Homo sapiens, NCI-H661); above 20 µM in the series on NB4 (Homo sapiens, NB-4); above 20 µM in the series with HL60 (Homo sapiens, HL-60). In series [1], the “extracellular reduced thiols levels” value is “induced”.

Turning to `CC(C)(C)c1cc(O)ccc1O` [Tert-butyl hydroxyquinone, reference compound], the IC50 in the series on H1299 is above 100 µM; with MCF-7, above 60 µM; in the series on A549, above 20 µM; in the series with H661, above 40 µM; with NB4, above 20 µM; with HL60, above 25 µM. Moreover, the ATF4 activity entry with ATF4 is “not effective”. Also, in the series on SLC7A11, the SLC7A11 expression result was “Increased SLC7A11 expression”. Besides, the “extracellular reduced thiols levels” value in series [1] is given as “induced”.

On to `c1ccc([Te][Te]c2ccccc2)cc1` [diphenyl ditelluride], for which the ATF4 activity result with ATF4 is “Increased ATF4 activity”.

Turning to `N[C@@H](CCC(=O)O)C(=O)[O-].[Na+]` [mono-sodium glutamate], the thiols efflux result in series [1] was “inhibited thiols efflux”.

For `CNC(=O)c1cc(Oc2ccc(NC(=O)Nc3ccc(Cl)c(C(F)(F)F)c3)cc2)ccn1` [sorafenib], the thiols efflux result in [1] was “no effect”.

With Tunicamycin [reference compound], the figures for the IC50 with H1299 and in the series on MCF-7 were above 20 µM and above 5 µM, respectively. In addition, in the series with ATF4, the ATF4 activity result is “Increased ATF4 activity”. For the same molecule, the SLC7A11 expression result in the series with SLC7A11 was “Increased SLC7A11 expression”.
